Laboratory results published in PMC12604929, “Tumor-specific cytotoxicity of pyrazole-based chalcone derivatives in human oral squamous cell carcinoma cell lines” (Turkish Journal of Biology, 2025).
Entries after “also recorded” stand apart in the source; their conditions may differ. Read-outs that look alike come from different tables or passages of the source.

Tests used:
[1] = system: human normal oral cells (HGF, HPLF, HPC); test: MTT cytotoxicity, three normal oral cell types together (mean); type: cell-based; details: mean of HGF, read-out: CC50 normal oral cells mean (D)
Text: (§1) Estimation of CC50 values. […] The mean pCC50 values for normal cells and tumor cell lines were defined as N and T, respectively.

[2] = system: HSC-4 cells (OSCC, tongue); test: MTT cytotoxicity assay, HSC-4; type: cell-based, human; details: average of three determinations
Protocol: (§2) The viable cell number was determined in triplicate by the MTT method, following the approach adopted in previous studies ([Nagai et al., 2018]; [Shi et al., 2018] ). Briefly, the cells were incubated for 2 h with 0.2 mg/mL of MTT, and the formed formazan was dissolved with 0.1 mL of DMSO to determine the relative viable cell number at 560 nm.
(§3) Cells were inoculated at 2×10^3 cells/0.1 ml in a 96-microwell plate. […] Cells were incubated further for 48 h and the relative viable cell number was then determined by the MTT method and expressed as the absorbance of the cell lysate at 560 nm, using a microplate reader (Infinite F50R; TECAN, Männedorf, Switzerland) [49, 50]. Control cells were treated with the same amounts of DMSO and the cell damage induced by DMSO was subtracted from that induced by test agents. The concentration of compound that reduced the viable cell number by 50% (CC50) was determined from the dose–response curve and the mean value of CC50 for each cell type was calculated from triplicate assays.
(§4) Human oral squamous cell carcinoma (OSCC) cell lines [Ca9-22 (derived from gingival tissue); and HSC-2, HSC-3, HSC-4 (derived from tongue)] were purchased from Riken Cell Bank (Tsukuba, Japan). All of these cells were cultured at 37°C in DMEM supplemented with 10% heat-inactivated fetal bovine serum, 100 units/ml, penicillin G and 100 µg/ml streptomycin sulfate under a humidified 5% CO2 atmosphere. Cell morphology was checked periodically under a light microscope (EVOS FL; Thermo Fisher Scientific, Waltham, MA, USA).

[3] = system: periodontal ligament fibroblast (HPLF), normal oral cells; test: MTT cytotoxicity assay, HPLF; type: cell-based, human; details: 48 h, average of three determinations
Protocol: as §2, §3
(§5) All of these cells were cultured at 37°C in DMEM supplemented with 10% heat-inactivated fetal bovine serum, 100 units/ml, penicillin G and 100 µg/ml streptomycin sulfate under a humidified 5% CO2 atmosphere.

[4] = system: gingival fibroblast (HGF), normal oral cells; test: MTT cytotoxicity assay, HGF; type: cell-based, human; details: 48 h, average of three determinations
Protocol: as §2, §3, §4

[5] = system: human OSCC cell lines (Ca9-22, HSC-2, HSC-3, HSC-4); test: MTT cytotoxicity, four OSCC cell lines together (mean, TS, PSE, type of growth inhibition); type: cell-based; details: for type of growth inhibition on the OSCC cell lines: from dose-response curves, Figure 4, cytostatic = without complete cytotoxicity, cytotoxic = complete cell death; for TS (D/B) tumor-selectivity index: mean CC50 normal cells / mean CC50 OSCC cell lines; for CC50: mean of Ca9-22, HSC-2, HSC-3, HSC-4, read-out: CC50 OSCC mean (B); for PSE (D/B^2)x100 potency-selectivity expression: three normal cell types vs four OSCC cell lines
Protocol: TS was calculated using the following equation: TS=mean CC50 against three normal oral cell types/mean CC50 against four OSCC cell lines (HGF, HPLF, HPC vs. Ca9-22, HSC-2, HSC-3, HSC-4). Since both Ca9-22 and HGF cells were derived from the gingival tissue, the relative sensitivity of these cells was also compared (as: CC50 against HGF/ CC50 against Ca9-22).
PSE was calculated by the following equation: PSE=mean CC50 against three normal oral cell types/(CC50 against four OSCC cell lines)2 × 100 (HGF, HPLF, HPC vs. Ca9-22, HSC-2, HSC-3, HSC-4); and as CC50 against HGF/(CC50 against Ca9-22)2 × 100 using the pair of cell types from the same tissue (gingiva) (see Table 1).
as §1

[6] = system: Ca9-22 cells (OSCC, gingival tissue); test: MTT cytotoxicity assay, Ca9-22; type: cell-based, human; details: for TS (C/A) tumor-selectivity index: CC50 HGF / CC50 Ca9-22 (both gingival); for PSE (C/A^2)x100 potency-selectivity expression: HGF vs Ca9-22 (both gingival); for CC50: OSCC, 48 h, MTT, average of three determinations
Protocol: as §2, §3, §4

[7] = system: HSC-3 cells (OSCC, tongue); test: MTT cytotoxicity assay, HSC-3; type: cell-based, human; details: for CC50: OSCC, 48 h, MTT, average of three determinations; for increase of cytotoxicity against HSC-3 compared to MS4: relative to unsubstituted phenyl derivative MS4
Protocol: as §2, §3, §4

[8] = system: HSC-2 cells; test: Cell-cycle analysis (propidium iodide, cell sorting); type: cell-based, human; details: HSC-2, 24 h; for subG1 cell population: control 1.9 %; for share of S-phase cells: control 15.6%; for share of G2+M phase cells: control 20.5%
Protocol: Cell-cycle analysis was performed following the process described in the literature ([Kantoh et al., 2010]; [Nagai et al., 2018]; [Shi et al., 2018]), details of which are presented in a supplementary file. Briefly, cells (approximately 10^6 in number) were fixed with paraformaldehyde in PBS(−) and treated with RNase A. After staining with propidium iodide in the presence of 0.01% Nonidet-40 to prevent cell aggregation, the cells were filtered through Falcon cell strainers and then subjected to cell sorting, analyzed with Cell Sorter Software (version 2.1.2) (SONY Imaging Products and Solution Inc., Kanagawa, Japan).
HSC-2 cells were incubated for 24 h with actinomycin D (Act.D) (positive control of apoptosis induction) or MS4, 7, or 8, or without treatment (control), and subjected to cell cycle analysis. […] D (1 μM) (p < 0.05) from 1.9 % to 12.5%. […] The cell cycle analysis was performed only with HSC-2 cells; therefore, experiments with other OSCC cell lines should be conducted to support the generalization of our findings.
Treated and untreated cells (approximately 10^6 cells) were harvested, fixed with 1% paraformaldehyde in PBS without calcium and magnesium ions [PBS(−)]. Fixed cells were then washed twice with PBS(−) and treated for 30 min with 400 μl of 0.2 mg/ml RNase A (preheated for 10 min at 100 °C to inactivate DNase) to degrade RNA. Cells were then washed twice with PBS(−) and stained for 15 min with 0.01% propidium iodide (PI) in the presence of 0.01% NP-40 in PBS(−) to prevent cell aggregation. After filtering through Falcon® cell strainers ([…]) (Corning, NY, USA) to remove aggregated cells, PI-stained cells were subjected to cell sorting (SH800 Series; SONY Imaging Products and Solutions Inc., Kanagawa, Japan). Cell-cycle analysis was performed with Cell Sorter Software version 2.1.2. (SONY Imaging Products and Solution Inc.).

[9] = system: pulp cells (HPC), normal oral cells; test: MTT cytotoxicity assay, HPC; type: cell-based, human; details: 48 h, average of three determinations
Protocol: as §2, §3, §5

[10] = system: HSC-2 cells (OSCC, tongue); test: MTT cytotoxicity assay, HSC-2; details: for relative cytotoxicity against HSC-2: from CC50 values 1.1, 2.8, 3.6 μM; for CC50: read-out: CC50 HSC-2
Protocol: as §2, §3, §4

[11] = MTT cytotoxicity, three normal oral cell types together (mean); type: cell-based, human; details: female, human; mean of HGF, HPLF, HPC; read-out: CC50 normal oral cells mean (D)
Text: as §1

[12] = MTT cytotoxicity assay, HPLF; type: cell-based, human; details: female, human, normal oral cells, average of three determinations
Protocol: as §2, §3, §5

[13] = MTT cytotoxicity assay, HGF; type: cell-based, human; details: human, human gingival fibroblasts (HGF), normal oral cells, average of three determinations
Protocol: as §2, §3, §4

[14] = MTT cytotoxicity assay, HPC; type: cell-based, human; details: female, human, human pulp cells (HPC), normal oral cells, average of three determinations
Protocol: as §2, §3, §5

[15] = system: HeLa cells; set-up: method as in El-Awady et al., 2011; details: most resistant of five cancer cell lines; ref El-Awady et al., 2011; cited from earlier work
[16] = system: U251 cells; set-up: method as in El-Awady et al., 2011; details: most sensitive of five cancer cell lines; ref El-Awady et al., 2011; cited from earlier work

With `NS(=O)(=O)c1ccc(-n2cc(/C=C/C(=O)c3ccccc3)c(-c3ccccc3)n2)cc1` [MS4, (E)-4-(4-(3-Oxo-3-phenylprop-1-en-1-yl)-3-phenyl-1H-pyrazol-1 yl) benzenesulfonamide] the CC50 [1] was > 384 µM, the CC50 ([2]; 48 h) was 3.5 µM and the CC50 [3] was > 400 µM. The CC50 [4] was 351 µM, the “type of growth inhibition on the OSCC cell lines” value (“type of growth inhibition” for short) [5] was “cytostatic effects; also recorded: cytostatic growth inhibition” and the “TS (D/B) tumor-selectivity index” value [5] was >103.7. The CC50 [5] was 3.7 µM, the “PSE (D/B^2)x100 potency-selectivity expression” value [5] was > 2800 and the “TS (C/A) tumor-selectivity index” value [6] was 71.2. For the same compound, the “PSE (C/A^2)x100 potency-selectivity expression” value [6] was > 1444, the CC50 [6] was 4.9 µM and the CC50 [7] was 5.2 µM. For the same compound, the “effect on cell cycle distribution” value [8] was “increased the cell population in the S and G2/M phases; also recorded: only slightly induced such changes in cell cycle distribution; also recorded: induced G2+M arrest”, the subG1 cell population ([8]; 2.2 μM) was 2.0% and the CC50 [9] was > 400 µM. The “relative cytotoxicity against HSC-2” value [10] was 3.3 fold and the CC50 ([10]; OSCC, 48 h, MTT, average of three determinations) was 1.1 µM.
For `COc1cc(OC)c(C(=O)/C=C/c2cn(-c3ccc(S(N)(=O)=O)cc3)nc2-c2ccccc2)cc1OC` [MS7, (E)-4-(4-(3-Oxo-3-(2,4,5-trimethoxyphenyl)prop-1-en-1-yl)-3-phenyl-1H-pyrazol-1-yl)benzenesulfonamide], the CC50 at 48 h [11] was > 400 µM, the CC50 ([2]; Homo sapiens, HSC-4, 48 h) was 3 µM and the CC50 at 48 h [12] was > 400 µM. For the same compound, the CC50 at 48 h [13] was > 400 µM, the CC50 ([5]; Homo sapiens) was 2.7 µM and the “type of growth inhibition” value [5] was “cytotoxic effects; also recorded: cytotoxic growth inhibition”. The “TS (D/B) tumor-selectivity index” value [5] was >148.7, the “PSE (D/B^2)x100 potency-selectivity expression” value [5] was > 5531 and the “TS (C/A) tumor-selectivity index” value [6] was >247.4. The CC50 ([6]; Homo sapiens, Ca9-22) was 1.6 µM, the “times more cytotoxic towards Ca9-22 than 5-FU” value ([6]; relative to reference compound 5-FU) was 20.6 times and the CC50 ([7]; Homo sapiens, HSC-3) was 3.3 µM. For the same compound, the “increase of cytotoxicity against HSC-3 compared to MS4” value [7] was 1.5–2 times, the “effect on cell cycle distribution” value [8] was “increased the cell population in the S and G2/M phases” and the subG1 cell population ([8]; 5.6 μM) was 1.0%. The subG1 cell population ([8]; 11.2 μM) was 1.3%, the “share of S-phase cells” value ([8]; concentration not given) was 20.6% and the “share of G2+M phase cells” value ([8]; concentration not given) was 35.0%. The G1 phase cells ([8]; control 63.2%, concentration not given) was 44.5%, the “effect on cell cycle distribution” value ([8]; listed as 7) was “induced G2+M arrest” and the CC50 at 48 h [14] was > 400 µM. The CC50 ([10]; Homo sapiens, HSC-2, 48 h) was 2.8 µM and the “relative cytotoxicity against HSC-2” value [10] was 1.3 fold.
With `COc1cc(C(=O)/C=C/c2cn(-c3ccc(S(N)(=O)=O)cc3)nc2-c2ccccc2)cc(OC)c1OC` [MS8, (E)-4-(4-(3-Oxo-3-(3,4,5-trimethoxyphenyl)prop-1-en-1-yl)-3-phenyl-1H-pyrazol-1-yl)benzenesulfonamide] the CC50 at 48 h [11] was > 380 µM, the CC50 ([2]; Homo sapiens, HSC-4, 48 h) was 3.5 µM and the CC50 at 48 h [12] was 340 µM. The CC50 at 48 h [13] was > 400 µM, the CC50 ([5]; Homo sapiens) was 3.3 µM and the “type of growth inhibition” value [5] was “cytotoxic effects; also recorded: cytotoxic growth inhibition”. For the same compound, the “TS (D/B) tumor-selectivity index” value [5] was >113.5, the “PSE (D/B^2)x100 potency-selectivity expression” value [5] was > 3389 and the “TS (C/A) tumor-selectivity index” value [6] was >169.0. The “PSE (C/A^2)x100 potency-selectivity expression” value [6] was > 7141, the CC50 ([6]; Homo sapiens, Ca9-22) was 2.4 µM and the CC50 ([7]; Homo sapiens, HSC-3) was 4 µM. For the same compound, the “increase of cytotoxicity against HSC-3 compared to MS4” value [7] was 1.5–2 times, the “effect on cell cycle distribution” value [8] was “increased the cell population in the S and G2/M phases” and the subG1 cell population ([8]; 7.2 μM) was 1.3%. For the same compound, the “share of S-phase cells” value ([8]; concentration not given) was 21.2%, the “share of G2+M phase cells” value ([8]; concentration not given) was 35.4% and the “effect on cell cycle distribution” value ([8]; listed as 8) was “induced G2+M arrest”. The CC50 at 48 h [14] was > 400 µM and the CC50 ([10]; Homo sapiens, HSC-2, 48 h) was 3.6 µM.
In the case of `Cc1ccc(-c2cc(C(F)(F)F)nn2-c2ccc(S(N)(=O)=O)cc2)cc1` [celecoxib], the IC50 [15] is given as 37.2 µM and the IC50 [16] is given as 11.7 µM.
